Source: patent US20240366539A1, “METHODS FOR TREATING AUTISM SPECTRUM DISORDERS” (INSTITUT NATIONAL DE LA SANTÉ ET DE LA RECHERCHE MÉDICALE, priority 2021, published 2024)

Key:
Shank3^Δex13-16−/− mice [1] = experiment: Three-chamber social preference test; type: in vivo, mouse; settings: Shank3Δex13-16−/− mice; chronic NaBr 250 mg/kg once daily
Method: (§1) Mice were treated with vehicle (NaCl 0.9%; ip, 10 or 20 ml/kg), NaBr (Sigma-Aldrich, Saint-Quentin Fallavier, France) administered either chronically (once a day, 10, 30, 70, 125, 250 and 500 mg/kg; i.p. or per os, in a volume of 20 ml/kg—except for combination with VU0155041: […]) or acutely (250 mg/kg, 20 ml/kg), KBr (Sigma-Aldrich, Saint-Quentin Fallavier, France; 145 mg/kg; i.p., 20 ml/kg), bumetanide (R&D systems, Minneapolis, USA, 0.5 and 2 mg/kg; i.p., 20 ml/kg) or VU0155041 (Cayman Chemicals, Ann Arbor, USA, once a day, i.p., 1 mg/kg, 10 ml/kg). […] When treatment was given chronically, behavioral testing started 8 days after beginning of daily administration. Treatment was maintained for 8 to 18 consecutive days (see timelines in FIGS. 1 and 4), allowing thorough behavioral phenotyping. On testing days, or when treatment was given acutely, drugs (or vehicle) were administered 30 min before behavioral assays.
(§2) Three-chamber social preference test. The test apparatus consisted of a transparent acrylic box (exterior walls blinded with black plastic film); partitions divided the box into three equal chambers (40×20×22.5 cm). Two sliding doors (8×5 cm) allowed transitions between chambers. Cylindrical wire cages (18×9 cm, 0.5 cm diameter-rods spaced 1 cm apart) were used to contain the mouse interactor and object (soft-toy mouse). The test was performed in low-light conditions (15 lx) to minor anxiety. Stimulus wild-type mice were habituated to confinement in wire cages for 2 days before the test (20 min/day). On testing day, the experimental animal was introduced to the middle chamber and allowed to explore the whole apparatus for a 10-min habituation phase (wire cages empty) after the sliding doors were raised. The experimental mouse was then confined back in the middle-chamber while the experimenter introduced an unfamiliar wild type age and sex-matched animal into a wire cage in one of the side-chambers and a soft toy mouse (8×10 cm) in the second wire cage as a control for novelty. Then the experimental mouse was allowed to explore the apparatus for a 10-min interaction phase. The time spent in each chamber, the time spent in nose contact with each wire cage (empty: habituation; containing a mouse or a toy: interaction), as well as the number of these nose contacts were scored a posteriori on video recordings using an ethological keyboard (Labwatcher®, View Point, Lyon, France) by trained experimenters. […] The relative position of stimulus mice (versus toy) was counterbalanced between groups.
(§3) To this purpose, we evaluated the effects of chronic NaBr administration at the dose of 250 mg/kg on autism-sensitive behaviors in these lines (FIG. 3A).

Fmr1^−/− mice [2] = experiment: Three-chamber social preference test; type: in vivo, mouse; settings: chronic NaBr 250 mg/kg once daily
Method: as §1, §2, §3

Oprm1^−/− mice = experiment: Behavioral tests of social, repetitive and anxious behavior (oral NaBr, KBr; data not shown); settings: mouse, in vivo, po, 250 mg/kg
Method: as §1
Also, we assessed the behavioral effects of chronic administration of another bromide salt, KBr.

Shank3^Δex13-16−/− mice [3] = experiment: Direct social interaction test; type: in vivo, mouse; settings: Shank3Δex13-16−/− mice
Method: as §1
(§4) Direct social interaction test. On testing day, a pair of unfamiliar mice (not cage mates, age-, sex- and treatment-matched) was introduced in each arena for 10 min (15 lx). Each arena received a black plastic floor (transparent to infrared). […] The mean duration of nose and paw contacts was calculated from previous data (61-63).
as §3

Fmr1^−/− mice [4] = experiment: Direct social interaction test; type: in vivo, mouse
Method: as §1, §4, §3

Shank3^Δex13-16−/− mice [5] = experiment: Motor stereotypies; type: in vivo, mouse; settings: Shank3Δex13-16−/− mice; chronic NaBr 250 mg/kg once daily
Method: as §1
(§5) Motor stereotypies. To detect motor stereotypies in mutant versus wild-type animals, mice were individually placed in clear standard home cages (21×11×17 cm) filled with 3-cm deep fresh sawdust for 10 min (64). Light intensity was set at 30 lux. Trained experimenters scored numbers of head shakes, as well as rearing, burying, grooming, circling episodes and total time spent burying by direct observation.
as §3

Fmr1^−/− mice [6] = experiment: Motor stereotypies; type: in vivo, mouse; settings: chronic NaBr 250 mg/kg once daily
Method: as §1, §5, §3

Shank3^Δex13-16−/− mice [7] = experiment: Novelty-suppressed feeding; type: in vivo, mouse; settings: Shank3Δex13-16−/− mice; chronic NaBr 250 mg/kg once daily
Method: as §1
(§6) Novelty-suppressed feeding. Novelty-suppressed feeding (NSF) was measured in 24-hr food-deprived mice, isolated in a standard housing cage for 30 min before individual testing. Three pellets of ordinary lab chow were placed on a white tissue in the center of each arena, lit at 60 lx. Each mouse was placed in a corner of an arena and allowed to explore for a maximum of 15 min. Latency to feed was measured as the time necessary to bite a food pellet. Immediately after an eating event, the mouse was transferred back to home cage (free from cage-mates) and allowed to feed on lab chow for 5 min. Food consumption in the home cage was measured.
as §3

Fmr1^−/− mice [8] = experiment: Novelty-suppressed feeding; type: in vivo, mouse; settings: chronic NaBr 250 mg/kg once daily
Method: as §1, §6, §3

[9] = stated in conclusion, no data; cited from earlier work
[10] = chronic NaBr 250 mg/kg once daily
[11] = one week after interruption of NaBr 250 mg/kg

In the case of `[Br-].[Na+]` [NaBr, sodium bromide], the “duration of nose contacts with the mouse versus the toy” value (Shank3^Δex13-16−/− mice [1]) is reported as “made longer nose contacts with their congener versus the toy”, the “number of nose contacts” value (Shank3^Δex13-16−/− mice [1]) is reported as “no change in the number of nose contacts” and the preference ratio (Shank3^Δex13-16−/− mice [1]) is reported as “increased preference ratio”. The “time in contact with the mouse versus the toy” value (Shank3^Δex13-16−/− mice [1]) was “spent more time in contact with the mouse”, the “duration of nose contacts with the mouse versus the object” value (Fmr1^−/− mice [2]) was “making longer nose contacts with the mouse versus the object” and the “number of nose contacts with either stimulus” value (Fmr1^−/− mice [2]) was “without modifying the number of nose contacts”. For the same compound, the preference ratio (Fmr1^−/− mice [2]) was “normalized their preference ratio”, the “time exploring the mouse versus the object” value (Fmr1^−/− mice [2]) was “restored a preference for spending more time exploring the mouse” and the “autistic-like deficits and motor stereotypies” value (Oprm1^−/− mice) was “relieved autistic-like deficits and motor stereotypies in Oprm1^−/− mice in a similar way as it did after intra-peritoneal injection”. The “duration of nose contacts” value (Shank3^Δex13-16−/− mice [3]; [10]) was “restored the duration of nose”, the “duration of paw contacts” value (Shank3^Δex13-16−/− mice [3]; [10]) was “restored” and the “grooming after social contact” value (Shank3^Δex13-16−/− mice [3]; [10]) was “suppressed grooming after social contact”. For the same compound, the “number of following episodes” value (Shank3^Δex13-16−/− mice [3]; [10]) was “normalized the number of following episodes”, the “duration of paw contacts” value (Shank3^Δex13-16−/− mice [3]; [11]) was “no effect of previous bromide treatment was longer detected” and the “grooming after social contact” value (Shank3^Δex13-16−/− mice [3]; [11]) was “remained efficiently suppressed”. The “duration of nose contacts” value (Fmr1^−/− mice [4]; [10]) was “restored the duration of nose”, the “duration of paw contacts” value (Fmr1^−/− mice [4]; [10]) was “restored” and the “grooming after social contact” value (Fmr1^−/− mice [4]; [10]) was “suppressed grooming after social contact”. For the same compound, the “number of following episodes” value (Fmr1^−/− mice [4]; [10]) was “normalized the number of following episodes”, the “duration of paw contacts” value (Fmr1^−/− mice [4]; [11]) was “significant beneficial effects were still detected” and the “number of grooming episodes after a social contact” value (Fmr1^−/− mice [4]; [11]) was “significant beneficial effects were still detected”. For the same compound, the circling episodes (Shank3^Δex13-16−/− mice [5]) was “normalized all these parameters to WT levels”, the head shakes (Shank3^Δex13-16−/− mice [5]) was “normalized all these parameters to WT levels” and the spontaneous grooming (Shank3^Δex13-16−/− mice [5]) was “normalized all these parameters to WT levels”. For the same compound, the circling episodes (Fmr1^−/− mice [6]) was “normalized all these parameters to WT levels”, the head shakes (Fmr1^−/− mice [6]) was “normalized all these parameters to WT levels” and the food intake (Shank3^Δex13-16−/− mice [7]) was “had no effect on food intake”. For the same compound, the latency to eat (Shank3^Δex13-16−/− mice [7]) was “normalized this latency to WT levels”, the food intake (Fmr1^−/− mice [8]) was “no modification in their food intake” and the latency to eat (Fmr1^−/− mice [8]) was “reduced this latency”. For the same compound, the brain penetrance [9] was “excellent” and the oral bioavailability [9] was “excellent oral bioavailability”.
